Where no end group is shown, it is not given here.
Experiments:
STAT1 = STAT1 activation in cytokine-stimulated macrophages (Western blot); type: cell-based, murine; conditions: pre-incubation 50-150 ug/mL (Mut 150 ug/mL), IFNγ and IL-6 stimulation
Description: (§1) RAW264.7 macrophages and vascular smooth muscle cells (VSMC) cultured in a medium with 10% fetal bovine serum were used. The cells were synchronized (24 hours without serum), pre-incubated for 90 minutes with different peptide concentrations (miS1 or the control thereof, 50-150 μg/mL) and stimulated with cytokines (IFNγ […]). STAT activation was analyzed by means of Western blot for phosphorylated STAT1/STAT3 isoforms. JAK/STAT pathway-dependent chemokine (CCL2) expression was determined by means of ELISA. Cell viability was analyzed by MTT colorimetric assay and macrophage migration was analyzed by chemotaxis assay.

STAT3 = STAT3 activation in cytokine-stimulated macrophages (Western blot); type: cell-based, murine; conditions: pre-incubation 50-150 ug/mL (Mut 150 ug/mL), IFNγ and IL-6 stimulation
Description: as §1

## Mut: non-functional mutated peptide, F substituted with A: SEQ ID NO 3 DTHARTARSHSDYRRI, bound to lysine-palmitate; control of the experiments (not fully specified (N-terminus)) [reference compound]
STAT1
  STAT1 activation (phosphorylation): did not cause any effect
STAT3
  STAT3 activation (phosphorylation): did not cause any effect

From patent publication US10532082B2, “SOCS1-derived peptide for use in chronic complications of diabetes” (Fundació Hospital Universitari Vall d'Hebron-Institut de …, priority 2014, dated 2020)
